Measured values taken from patent US5475130A, “Anilide derivative” (Taisho Pharmaceutical Co., Ltd., priority 1990, dated 1995).

Molecular target: T1, ACAT (acyl-coenzyme A cholesterol acyltransferase) (Oryctolagus cuniculus, UniProt G1SFD9)
T1 construct: A rabbit small intestinal microsome fraction was prepared in the usual way; from tissue; host or cells: rabbit small intestine, microsome fraction
T1 sequence (G1SFD9 1-524): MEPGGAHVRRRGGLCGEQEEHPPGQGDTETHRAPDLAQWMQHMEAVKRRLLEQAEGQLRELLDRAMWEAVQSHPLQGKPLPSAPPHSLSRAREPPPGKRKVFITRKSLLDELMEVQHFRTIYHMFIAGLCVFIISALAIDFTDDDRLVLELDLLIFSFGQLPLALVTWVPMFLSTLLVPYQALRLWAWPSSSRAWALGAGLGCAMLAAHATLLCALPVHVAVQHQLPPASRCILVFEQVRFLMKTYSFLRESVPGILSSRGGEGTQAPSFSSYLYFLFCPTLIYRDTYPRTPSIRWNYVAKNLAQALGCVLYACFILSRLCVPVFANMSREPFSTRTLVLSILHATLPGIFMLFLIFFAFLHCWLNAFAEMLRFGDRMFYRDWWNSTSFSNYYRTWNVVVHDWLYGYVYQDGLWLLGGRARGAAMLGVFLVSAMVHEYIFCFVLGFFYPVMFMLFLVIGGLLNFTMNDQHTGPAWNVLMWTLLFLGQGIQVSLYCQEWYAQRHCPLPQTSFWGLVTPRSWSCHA
Assay: ACAT inhibition activity (rabbit small intestinal microsome fraction, [1-^14 C]oleyl coenzyme A)
Format: biochemical
Settings: not given
Description: (ACAT inhibition activity)
A rabbit small intestinal microsome fraction was prepared in the usual way, and the thus prepared microsome fraction was suspended in 0.04N potassiumphosphate buffer (pH 7.4) containing 0.1N sucrose, 0.03N ethylenediaminetetraacetic acid (EDTA) and 0.05N potassium chloride. Each of the drugs to be tested was dissolved in dimethyl sulfoxide.
The rabbit small intestinal microsome fraction suspension prepared above (250 μg as protein) and [1-^14 C]oleyl coenzyme A were added to 0.05N phosphate buffer (pH 7.4) containing 1% bovine serum albumin, followed by the addition of a drug to be tested with varied concentration,and the total volume was adjusted to 500 μl. The thus prepared mixture was incubated at 37° C. for 6 minutes, and the reaction was terminated by adding a mixture of chloroform and methanol (mixing ratio=2:1). After stirring, the resulting chloroform layer was collected and dried by concentration. […] A gel portion corresponding to cholesterol oleate was cut out and its radioactivity was measured using a liquid scintillation counter (LSC-3000, manufactured by Aroka Co., Ltd.). Samples obtained without using the drugs to be tested were also treated and measured in the same manner.
ACAT activity inhibition ratio (%)=(A-B)/B×100
A: ACAT activity when a drug to be tested is administered.
B: ACAT activity when a drug to be tested is not admistered.

SMILES | IC50
CCCCCCCCCCCCCCSCC(=O)Nc1c(C(C)C)cccc1C(C)C [Compound 1, N-(2,6-diisopropylphenyl)-2-(tetradecylthio)acetamide] | 0.001 to 0.01 µM

Same assay, conditions: rabbit small intestinal microsome fraction (250 μg as protein), 37° C., 6 minutes, pH 7.4, 1% bovine serum albumin; read-out: Activity (strength of the activity, IC50 value)

IC50 | SMILES
0.01 to 0.1 µM | CCCCCCCCCCCCSCC(=O)Nc1c(C(C)C)cccc1C(C)C [Compound 4, N-(2,6-diisopropylphenyl)-2-(dodecylthio)acetamide]
0.01 to 0.1 µM | CCCCCCCCCCCCCCCCSCC(=O)Nc1c(C(C)C)cccc1C(C)C [Compound 5, N-(2,6-diisopropylphenyl)-2-(hexadecylthio)acetamide]
0.001 to 0.01 µM | CCCCCCCCCCCCCCCCCCSCC(=O)Nc1c(C(C)C)cccc1C(C)C [Compound 6, N-(2,6-diisopropylphenyl)-2-(octadecylthio)acetamide]
0.01 to 0.1 µM | CC(C)c1cccc(C(C)C)c1NC(=O)CSCc1ccc(C(C)(C)C)cc1 [Compound 8, N-(2,6-diisopropylphenyl)-2-(4-t-butylbenzylthio)acetamide]
0.01 to 0.1 µM | CCCCCCCCCCCCCCSC(C)(C)C(=O)Nc1c(C(C)C)cccc1C(C)C [Compound 9, N-(2,6-diisopropylphenyl)-2-methyl-2-(tetradecylthio)propanamide]
0.001 to 0.01 µM | CCCCCCCCCCCCCCSCCCC(=O)Nc1c(C(C)C)cccc1C(C)C [Compound 10, N-(2,6-diisopropylphenyl)-4-(tetradecylthio)butanamide]
0.001 to 0.01 µM | CCCCCCCCCCCCCCSCCC(=O)Nc1c(C(C)C)cccc1C(C)C [Compound 12, N-(2,6-diisopropylphenyl)-3-(tetradecylthio)propanamide]
0.01 to 0.1 µM | CCCCCCCCCCCCCC[S+]([O-])CC(=O)Nc1c(C(C)C)cccc1C(C)C (stereo not shown) [Compound 13]
0.01 to 0.1 µM | CCCCCCCCCCCCCCS(=O)(=O)CC(=O)Nc1c(C(C)C)cccc1C(C)C [Compound 14, N-(2,6-diisopropylphenyl)-2-(tetradecylsulfonyl)acetamide]
0.01 to 0.1 µM | CCCCCCCCCCCCS(=O)(=O)CC(=O)Nc1c(C(C)C)cccc1C(C)C [Compound 17, N-(2,6-diisopropylphenyl)-2-(dodecylsulfonyl)acetamide]
0.01 to 0.1 µM | CCCCCCCCCCCCCCCCS(=O)(=O)CC(=O)Nc1c(C(C)C)cccc1C(C)C [Compound 18, N-(2,6-diisopropylphenyl)-2-(hexadecylsulfonyl)acetamide]
0.001 to 0.01 µM | CCCCCCCCCCCCCCSCC(=O)Nc1c(C)cccc1C(C)(C)C [Compound 24, N-(2-methyl-6-t-butylphenyl)-2-(tetradecylthio)acetamide]
